# Like-named read-outs stand apart in the source and are kept apart here.
# Experiments:
# [1] = PMEApp accumulation in liver organ following oral administration to normal fasted rats; assay type: in vivo, rat; details: 30 mg/kg PMEA equivalents p.o.
# Description: PMEA prodrugs were tested in vivo to identify prodrugs with suitable oral bioavailability and favorable intrahepatic activation rates.
# Following oral administration of 30-mg/kg prodrug (PMEA equivalents) to normal, fasted rats, liver organ samples were freeze-clamped at 8 hr. […] The retention time of PMEApp was 18.6 minutes.
# [2] = test system: freshly isolated rat hepatocytes; details: 250 μM prodrug
# Description: PMEA prodrugs were tested.
# Hepatocytes were prepared from fed Sprague-Dawley rats (250–300 g) according to the procedure of Berry and Friend (Berry, M. N. Friend, D. S., J. Cell Biol. 43:506–520 (1969)) as modified by Groen (Groen, A. K. et al., Eur. J. Biochem 122:87–93 (1982)). Hepatocytes (60 mg/ml wet weight, >85% trypan blue viability) were incubated in 2 ml of krebs-bicarbonate buffer containing 20 mM glucose, and 1 mg/ml BSA for 4 hours in the presence of 250 μM PMEA prodrugs (from 25 mM stock solutions of prodrugs in methanol). At appropriate time points throughout the incubation (0, 1, 2, 4 hours), 400-μl aliquots of the cell suspension were taken and centrifuged through a silicon/mineral oil layer into 10% perchloric acid to extract intracellular nucleotides. The acidic cell extracts were neutralized with 0.3 volumes of 3M KOH/3M […] before evaluating PMEApp levels by ion exchange HPLC (Hewlett Packard 1050) using a Whatman Partisphere SAX (5 μm, 4.6×125 mm) column. Samples were loaded onto the column in 0.3M-ammonium phosphate buffer pH 3.5 and eluted from the column with a gradient to 0.8 M ammonium phosphate pH 3.5.
# [3] = oral administration, species not stated; cited from earlier work
# [4] = cited from earlier work
# [5] = humans; i.v. dose; cited from earlier work
# [6] = cited from earlier work; remark: listed apart in the source
# [7] = test system: freshly isolated rat hepatocytes; experiment: PMEApp accumulation in rat hepatocytes following incubation with Compound 56 and PMEA (25 μM); assay type: cell-based; details: 0–4 h, rat hepatocytes 20 mg/ml
# Description: Hepatocyte pellets were immediately sonicated in 300 μl of ice-cold acetonitrile followed by the addition of 200 μl of water. Hepatocyte extracts were centrifuged for 20 minutes in an Eppendorf centrifuge at 4° C. and supernatants from the extracts were transferred to a fresh tube. Hepatocyte extract supernatants were evaporated to dryness under vacuum and then resuspended in 200 μl of water. PMEApp concentrations were quantified by LC-MS/MS (negative-ion mode) based on authentic PMEApp standards spiked into hepatocyte extracts. Ten microliter samples were loaded onto a Phenomenex Luna […] C8 column (50×2 mm) in 20 mM N-N-dimethylhexylamine, 10 mM propionic acid and eluted with a gradient of methanol from 20–64% over 5.5 minutes. An API 2000 triple quadrupole mass spectrometer fitted with a pneumatically-assisted electrospray interface was used to quantify the negative ion (PO3^−) using a Multiple Reaction Monitoring (MRM) technique.
# human liver microsomes = experiment: Cis versus trans prodrug activation in human liver microsomes; assay type: in vitro ADME; details: 100 μM prodrug, 2 mg/mL human liver microsomes; for Activation Rate: 5 minutes, 37° C.
# From the text: The activation rates of cis (Compound 56, lot #20010093) and trans (9-{2-[2,4-trans-(S)-(+)-4-(3-chlorophenyl)-2-oxo-1,3,2-dioxaphosphorinan-2-yl]methoxyethyl} adenine, (lot 20010195) PMEA prodrugs was compared in order to establish which prodrug diastereomer is activated the most efficiently in human liver microsomes.
# Human liver microsomes (mixed pool) were purchased from In Vitro Technologies (Lot RQX). […] Reactions were quenched with 60% methanol.
# [8] = test system: liver microsomes isolated from rats induced with dexamethasone; experiment: In vitro activation of PMEA prodrug analogues to PMEA by rat liver microsomes
# Description: PMEA prodrug analogues were tested for activation to PMEA in reactions catalyzed by the microsomal fraction of rat liver.
# Prodrugs (25 and 250 μM) were tested for activation by liver microsomes isolated from rats induced with dexamethasone to enhance CYP3A4 activity (Human Biologics Inc., Phoenix Ariz.). Reactions were conducted in 0.1 M KH2PO4, pH 7.4, in the presence of 2 mM NADPH and liver microsomes (1 mg/mL). Reaction mixtures were incubated for 5 minutes in an Eppendorf Thermomixer 5436 (37° C., speed 6). Reactions were terminated by the addition of 1.5 volumes of methanol. The resulting extracts were clarified by centrifugation at 14,000 rpm in an Eppendorf microfuge (20 minutes). The supernatants (200 μL) were evaporated under vacuum and heat to dryness before resuspending in 80 μL of buffer A (see below) for PMEA analysis. Spiked standards of 9-[2-(phosophonomethoxy)ethyl]adenine, (PMEA, lot 980397, Metabasis Therapeutics) were prepared in the same reaction mixture and processed in an identical fashion. After resuspension, samples were analyzed by reverse phase HPLC (Altima C-18 column) with use of an ion-pairing buffer (Buffer A) consisting of 10 mM ammonium phosphate, 2.5 mM octyltriethylammonium phosphate, pH 5.5. Samples were loaded in Buffer A and eluted with a methanol gradient from 40% to 80% over 20 minutes. Detection was at 265 nm.
# [9] = Solubility and stability of the mesylate salt of Compound 54 in water; assay type: physicochemical
# Description: Ten Compound 54 salt forms (L-tartartric, succinic, maleic, L-malic, D-malic, citric, hydrochloric, phosphoric, nitric, methane-sulfonic acids) were evaluated to identify the best salt form to selectively crystallize out the cis-diastereomer from cis:trans mixtures following the prodrug coupling procedure. Solubility and stability of the mesylate salt of Compound 54 were analyzed in water.
# [10] = 30 mg/kg PMEA equivalents, in water, normal male rats
# Description: Compound 56 was solubilized in water for intravenous and oral administration. […] Liver organ concentrations of PMEApp were determined as indicated in Example I.
# [11] = cited from earlier work; remark: listed apart in the source
# [12] = dog, after bis POM PMEA, Cundy et al. 1997; cited from earlier work
# [13] = 30 mg/kg PMEA equivalents p.o., rats
# Description: Intact prodrug and the metabolite 9-[2-(phosophonomethoxy)ethyl]adenine (PMEA) and the respective mono-acids were measured in the plasma at 0 (predose), 0.33, 1, 3, 5, 8, and 12 hrs post dose by HPLC using fluorescence detection. The pharmacokinetic parameters were calculated based on noncompartmental analysis of the concentration-time profile.
# [14] = cited from earlier work; remark: listed apart in the source
# [15] = Plasma and urine PMEA following oral Compound 4 and bis POM PMEA in rats; assay type: in vivo, rat; details: 30 mg/kg PMEA equivalents p.o.
# Description: PMEA levels (0–12 h) were quantified in plasma by fluorescence HPLC following chloroacetaldehyde derivatization. PMEA levels in urine were quantified 48 hours after treatment.
# Plasma drug levels: PMEA was determined in plasma by a modification of the procedure described in the literature (Shaw J P, Louie M S, Krishnamurthy V V, Arimilli M N, Jones R J, Bidgood A M, Lee W A, & Cundy K C, Drug Metabolism and Disposition, 25:362–366 (1997)). Plasma (100 μL) samples were extracted with 2 volumes of 0.1% TFA in acetonitrile. Following centrifugation to remove the precipitate, the supernatant was evaporated to dryness. The dried plasma was reconstituted with 200 μL of the derivatization cocktail consisting of 0.34% chloroacetaldehyde in 100 mM sodium acetate pH 4.5 and incubated at 95° C. for 40 min. The samples were evaporated to dryness and reconstituted with mobile phase for analysis by HPLC. The derivatized PMEA was analyzed by an HPLC system (Hewlett Packard 1090) consisting of a Beckman Ultrasphere ODS 4.6×150 mm (5 μm) column developed with a 20-min gradient of 0–30% acetonitrile in 20 mM potassium phosphate pH 6.2. Fluorescence was monitored at an excitation and emission wavelength of 240 and 420 nm, respectively. The column temperature was 40° C. and the flow rate was 1.5 mL/min. The derivatized PMEA was detected and quantified by comparison to an authentic standard prepared in plasma and eluted at approximately 6 minutes. The limit of quantitation of PMEA, was 0.25 μg/mL.
# Urinary excretion studies: The percent excretion of PMEA in urine was assessed by a modification of a previously described procedure (Russell J W, Marrero D, Whiterock V J, & Klunk L J, J Chromatog, 572:321–326 (1991)). Aliquots (0.25–0.5 mL) of urine samples and spiked standards were incubated with an equal volume of 17% (v/v) of 50% chloroacetaldehyde in 100 mM sodium acetate pH 4.5 at 50° C. for 4 hrs. Following centrifugation, the supernatant was analyzed by the HPLC method described in the previous section.
# [16] = Tissue distribution of PMEA equivalents after oral tritiated Compound 4 and bis POM PMEA in rats; details: p.o.
# Description: Total tritium counts were analyzed in solubilized samples of liver organ, kidney, plasma, urine, red blood cells, small intestine, as well as small intestine contents and feces obtained at various time points over 24 hours. Liver organ specificity was assessed by comparison of the temporal profiles of total tritium in liver organ versus kidney, small intestine, plasma, and red blood cells. Metabolite profiles in perchloric acid extracts of liver organ, kidney, small intestine, feces and urine were analyzed by HPLC.
# [17] = 25 μM prodrug, 1 mg/mL microsomes, 2 mM NADPH, 5 minutes, 37° C., PMEA formation
# [18] = 250 μM prodrug, 1 mg/mL microsomes, 2 mM NADPH, 5 minutes, 37° C., PMEA formation
smiles,measurement,setting,value
Nc1ncnc2c1ncn2CCOCP1(=O)OCCC(c2cccc(Br)c2)O1 (mixture of isomers) [Compound 7],"Rats, PMEApp levels in liver organ @ 8 hr., 30 mg/kg, p.o.",[1],2.2 nmol/g
Nc1ncnc2c1ncn2CCOCP1(=O)OCCC(c2ccncc2)O1 (mixture of isomers) [Compound 2],"Rat Hepatocytes, PMEApp formation, 250 μM, AUC 0–4 h",[2],106.8 nmol·h/g
"Nc1ncnc2c1ncn2CCOCP(=O)(O)O [PMEA, 9-(2-phosphonylmethoxyethyl)adenine]",Oral bioavailability,[3],< 10%
same,Oral bioavailability in monkeys,[4],< 1%
same,Dose excreted renally / renally cleared,[5],98%
same,Oral bioavailability in humans,[6],< 12%
same,AUC0-4h PMEApp levels in hepatocytes,[7],84 nmol·h/g
"Nc1ncnc2c1ncn2CCOCP1(=O)OCC[C@@H](c2cccc(Cl)c2)O1 (stereo in doubt) [trans-, 9-{2-[2,4-trans-(S)-(+)-4-(3-chlorophenyl)-2-oxo-1,3,2-dioxaphosphorinan-2-yl]methoxyethyl} adenine]","Activation (below measureable detection limit, text)",human liver microsomes,< 0.05 nmol/min/mg
same,Activation Rate,human liver microsomes,≦0.05 nmol/mg/min.
Cc1ccc(C2CCOP(=O)(COCCn3cnc4c(N)ncnc43)O2)cn1 (mixture of isomers) [Compound 18],"Activation Rate, Dex. Rat Liver Microsomes, 25 μM",[8]; [17],<0.5 nmol/min/mg
same,"Activation Rate, Dex. Rat Liver Microsomes, 250 μM",[8]; [18],0.6 nmol/min/mg
Nc1ncnc2c1ncn2CCOCP1(=O)OCCC(c2ccccc2)O1 (mixture of isomers) [Compound 1],"Rats, PMEApp levels in liver organ @ 8 hr., 30 mg/kg, p.o.",[1],0.6 nmol/g
"CS(=O)(=O)O.Nc1ncnc2c1ncn2CCOCP1(=O)OCC[C@@H](c2cccc(Cl)c2)O1 (stereo in doubt) [Compound 56, 9-{2-[2,4-cis-(S)-(+)-4-(3′-Chlorophenyl)-2-oxo-1,3,2-dioxaphosphorinan-2-yl]metboxyethyl}adenine Methanesulfonate]",Activation Rate,human liver microsomes,0.45 ± 0.01 nmol/mg/min
same,Decomposition of dosing solutions,"[9]; 30 and 300 mg/ml in water, 5 days, room temperature",< 10%
same,Solubility in water,[9]; water,> 300 mg/mL
same,OBAV (ratio of AUC of liver organ PMEApp oral vs i.v.),[10],42%
Nc1ncnc2c1ncn2CCOCP1(=O)OCCC(c2ccc(Br)c(F)c2)O1 (mixture of isomers) [Compound 5],"Rats, PMEApp levels in liver organ @ 8 hr., 30 mg/kg, p.o.",[1],2.6 nmol/g
same,"Activation Rate, Dex. Rat Liver Microsomes, 25 μM",[8]; [17],1.3 nmol/min/mg
same,"Activation Rate, Dex. Rat Liver Microsomes, 250 μM",[8]; [18],1.5 nmol/min/mg
CC(C)(C)C(=O)OCOP(=O)(COCCn1cnc2c(N)ncnc21)OCOC(=O)C(C)(C)C [bis POM PMEA],Oral bioavailability in monkeys,[4],25%
same,Oral bioavailability in humans,[6],41%
same,Oral bioavailability in rats,[11],38%
same,"PMEA AUC (dose-normalized plasma), literature",[12],10.9
same,Intact prodrug in plasma,[13],not detected
same,Half-life in human serum,[14],< 5 min
same,AUC0-12h of PMEA in plasma,[15]; fasted rats,21.3 µM·h
same,Urinary levels of PMEA,"[15]; rats, urine 48 hours after treatment",20.6 % dose
same,Dose excreted in feces in the form of PMEA,[16],43%
Nc1ncnc2c1ncn2CCOCP1(=O)OCCC(c2cc(Cl)cc(Cl)c2)O1 (mixture of isomers) [Compound 3],"Activation Rate, Dex. Rat Liver Microsomes, 25 μM",[8],2.2 nmol/min/mg
same,"Activation Rate, Dex. Rat Liver Microsomes, 250 μM",[8],1.9 nmol/min/mg
Nc1ncnc2c1ncn2CCOCP1(=O)OCCC(c2ccccc2Br)O1 (centres unmarked) [Compound 6],"Rats, PMEApp levels in liver organ @ 8 hr., 30 mg/kg, p.o.",[1],7.1 nmol/g
Nc1ncnc2c1ncn2CCOCP1(=O)OCCC(c2cc(F)cc(F)c2)O1 (mixture of isomers) [Compound 10],"Rats, PMEApp levels in liver organ @ 8 hr., 30 mg/kg, p.o.",[1],2.2 nmol/g

# From patent US7214668B2, “Phosphonic acid based prodrugs of PMEA and its analogues” (Metabasis Therapeutics, Inc., priority 2002, dated 2007)
